Results reported in US20230201311A1, “COMPOSITIONS AND METHODS FOR TREATING NON-ALCOHOLIC STEATOHEPATITIS (NASH)” (SHANGHAI BENEMAE PHARMACEUTICAL CORPORATION, priority 2020, published 2023).

Tests used:
HFD-NASH mice [1] = test: Therapeutic effects of Beinaglutide on HFD induced NASH model in ob/ob mice (Example 2, 11 weeks); type: in vivo; conditions: for percentage of body weight changes from baselines: Day 78 (11 weeks); for plasma ALT level: FIG. 16B
Description: Animal grouping and experiment process: A total of 70 male ob/ob mice (6 weeks old) were fed with a chow diet after transferred to SPF animal room and acclimatized for 1 week. The feed was then switched to HFD diet (D09100310, fat (40 Kcal %), fructose (20 Kcal %) and cholesterol (2%), also named GAN (Gubra Amylin NASH) diet, Research Diets, Inc., USA) and maintained for 6 weeks. Inversed artificial circadian rhythms lighting were adopted during this period and subsequent drug administration period.
Plasma samples were collected for the measurement of ALT and mouse body weight data were measured at week 6. Animals were then randomly allocated into 4 groups (12 animals/group) based on body weight (the first weight index) and plasma ALT level (the second weight index). Drug and vehicle administration were started from week 7 since modeling start and mice were maintained on HFD diet with inversed artificial circadian rhythms lighting.
Data recording: Appearance and behavior of each mouse were observed after administration. All abnormal appearance, status and behaviors were recorded. In the period of HFD model development, body weight was measured once weekly from week 1 to week 6. Then body weight and food consumption were measured twice weekly since compound dosing start (week 7). The food consumption was calculated by the diet consumption of each cage of mice within 8 hours per day, the average food consumption per group was calculated. […]
Blood and tissue sampling: At the end of the in vivo study, all mice were euthanized via carbon dioxide (CO2) asphyxia after 11.5 hours fasting. Blood samples were collected via cardiac puncturing, one aliquot of each blood sample was collected into a tube without anti-coagulant for serum preparation. Serum was obtained by centrifugation at 3000 rpm for 10 minutes at 4° C. and then stored in a −80° C. refrigerator before being used for the measurement of ALT, AST, total bilirubin (TBIL), TC, TG and LDL-c. The other aliquot of each blood sample was collected into a tube with EDTA-K anti-coagulant for plasma preparation. Plasma samples were obtained by centrifugation at 4000×g for 10 minutes at 4° C. and then stored in a −80° C. refrigerator.
After the animal was sacrificed, the body weight and liver weight were measured, and four lobes of each liver were collected. The right middle lobe of each liver was collected, cut into two sections, put into two SNAP frozen tubes and kept at −80° C. before testing. One section of the liver tissue was used for mRNA expression analysis of Tgfb1, Col1a1 and Acta2; and the other section of the liver tissue was used for the measurement of TC and TG contents. The left middle lobe of each liver was collected, store at −80° C. for future use. The left lateral lobe of each liver was collected, cut into two sections and put into two tubes. One section was used for optimal cutting temperature (OCT) embedding, frozen sectioning and oil red staining for steatosis examination, and for calculation of percentage of fat deposition area. The other section was fixed with 10% neutral formalin solution and processed into formalin fixed paraffin-embedded (FFPE) block for H&E, Sirius red or α-SMA IHC staining respectively. The right lateral lobe of each liver was collected and fixed in 10% neutral formalin for future use.
Serum biochemistry analysis: The serum samples were taken out from −80° C. refrigerator and restored to room temperature. 150 μl of each serum sample was pipetted out for the analysis of ALT, AST, TBIL, TC, TG and LDL-c with automatic biochemical analyzer (HITACHI 7180).
qPCR analysis: The right middle lobe of each liver tissue was cut into small pieces, and 30-50 mg of liver tissue was weighed and transferred into a Lysing Matrix D tube, then 1 ml of TRIzol Reagent was added into Lysing Matrix D containing tissue immediately. […]

HFD-NASH mice [2] = test: Pharmacodynamics study of Beinaglutide in HFD-NASH mice (Example 1, 4 weeks); type: in vivo
Experimental: HFD-NASH model development Animals were group-housed in standard cages at 22° C. in a 12:12-h light-dark cycle. Ob/ob mice were allowed ad libitum access to a diet enriched in fat (40% kcal), fructose (20% by weight), and cholesterol (2% by weight) (Research Diets, Inc., #D09100310). Over 9 weeks feeding, the mice (HFD-NASH) were developed with nonalcoholic fatty liver disease (steatosis, steatohepatitis with fibrosis), as assessed by biochemical methods (e.g., ALT levels).^1 ^1Santhekadur P K, Kumar D P, Sanyal AszJ. Preclinical models of non-alcoholic fatty liver disease. J Hepatol. 2018 February; 68(2):230-237; 2) Clapper J R. Hendricks M D, Gu G. at al. Diet-Induced mouse model of fatty liver disease and nonalcoholic steatohepatitis reflecting clinical disease progression and methods of assessment. Am J Physiol Gastrointest Liver Physiol 305: G483-G495. 2013.
After 9 weeks diet-induction, HFD-NASH mice were randomized into different groups by body weight. Body weight and diet were measured every day. At termination, blood was collected by cardiac puncture after animal's euthanasia by CO2. Liver were harvested and weighted. Right medial and/or left lateral lobes of the liver were excised. One part of liver was frozen for liver triglyceride measurement. One part was frozen for protein, RNA level qualification, like collagen 1 alpha 1 (Col1a1). One part was paraffin embedded. Hematoxylin and eosin (H&E) were used for morphological analysis. Picrosirius red stains was used for assessment of hepatic fibrosis. Histopathological analysis was performed by a pathologist blinded to the study. The remaining liver tissue was kept at −80° C. till analysis. Plasma levels of ALT, AST, TG, and total cholesterol (TC) were measured by bioanalyzer or kits.
Oral glucose tolerance test (OGTT) was performed at day 30 and was a test to diagnose type 2 diabetes (FIG. 4B).
Homeostatic Model Assessment of Insulin Resistance (HOMA-IR) is a calculation marker for insulin resistance which was calculated by formula: Glucose (mM)×Insulin […]/22.5 (FIG. 4C). *P<0.05, […] vs vehicle group by student t test.

[3] = mouse, in vivo, sc
Experimental: Mice (n=4 per time point) were randomized into different groups by body weight on the day before the study. Mice were fasted overnight before dosing. […] Samples were collected at the time intervals shown in Table 1, where about 60 μL blood was taken into EDTA-coated tubes (pre-added 2.5 μL DPP-4 inhibitor, and 2.5 μL protease inhibitor). The plasma was separated on a pre-cooled centrifuge and then immediately frozen in dry ice. The samples were stored at −80° C. till assay.

[4] = all 3 doses (0.6, 1.2, 2.4 mg/kg), about 11 weeks

## CC[C@H](C)[C@H](NC(=O)[C@H](Cc1ccccc1)NC(=O)[C@H](CCC(=O)O)NC(=O)[C@H](CCCCN)NC(=O)[C@H](C)NC(=O)[C@H](C)NC(=O)[C@H](CCC(N)=O)NC(=O)CNC(=O)[C@H](CCC(=O)O)NC(=O)[C@H](CC(C)C)NC(=O)[C@H](Cc1ccc(O)cc1)NC(=O)[C@H](CO)NC(=O)[C@H](CO)NC(=O)[C@@H](NC(=O)[C@H](CC(=O)O)NC(=O)[C@H](CO)NC(=O)[C@@H](NC(=O)[C@H](Cc1ccccc1)NC(=O)[C@@H](NC(=O)CNC(=O)[C@H](CCC(=O)O)NC(=O)[C@H](C)NC(=O)[C@@H](N)Cc1cnc[nH]1)[C@@H](C)O)[C@@H](C)O)C(C)C)C(=O)N[C@@H](C)C(=O)N[C@@H](Cc1c[nH]c2ccccc12)C(=O)N[C@@H](CC(C)C)C(=O)N[C@H](C(=O)N[C@@H](CCCCN)C(=O)NCC(=O)N[C@@H](CCCNC(=N)N)C(=O)O)C(C)C [Beinaglutide]
HFD-NASH mice [1]; 0.6 mg/kg and 2.4 mg/kg, 11 weeks, vs control group, FIGS. 20A-20C
  liver fibrosis scores (H&E staining): significantly (P<0.05) decreased
HFD-NASH mice [1]; 0.6 mg/kg or 2.4 mg/kg, about 11 weeks
  animal counts with severe pathological changes (steatosis, steatosis location, interlobular inflammation, liver fibrosis scores, liver fibrosis pattern): decreased
HFD-NASH mice [1]; 0.6 mg/kg t.i.d. s.c., first of three values given 'respectively'
  percentage of body weight changes from baselines: −10.32%
HFD-NASH mice [1]; 1.2 mg/kg and 2.4 mg/kg, 11 weeks, FIG. 18B
  liver TG contents: dramatically decreased
HFD-NASH mice [1]; 1.2 mg/kg and 2.4 mg/kg, after 6 weeks of treatment
  plasma ALT level: significantly decreased
HFD-NASH mice [1]; 1.2 mg/kg and 2.4 mg/kg, after 11 weeks of treatment, vs control group, FIG. 17A
  serum ALT: significantly (P<0.05, or P<0.01) decreased
HFD-NASH mice [1]; 1.2 mg/kg and 2.4 mg/kg, after 11 weeks of treatment, vs control group, FIG. 17E
  serum TC levels: significantly (P<0.05, or P<0.01) decreased
HFD-NASH mice [1]; 1.2 mg/kg and 2.4 mg/kg, after 11 weeks, P>0.05, FIG. 17B
  serum AST level: appeared to have decreased
HFD-NASH mice [1]; 1.2 mg/kg t.i.d. s.c., second of three values given 'respectively'
  percentage of body weight changes from baselines: −10.12%
HFD-NASH mice [1]; 2.4 mg/kg t.i.d. s.c., third of three values given 'respectively'
  percentage of body weight changes from baselines: −10.74%
HFD-NASH mice [1]; 2.4 mg/kg, 11 weeks, vs control group, FIG. 23B
  area of liver macrovesicular steatosis (H&E staining): significantly decreased
HFD-NASH mice [1]; 2.4 mg/kg, 11 weeks, FIG. 21C
  number of animals with significant fibrosis severity (liver fibrosis pattern scoring): reduced
HFD-NASH mice [1]; 2.4 mg/kg, 11 weeks, FIGS. 24A-24E
  animal number with severe pathology for steatosis, steatosis location, interlobular inflammation: decreased
HFD-NASH mice [1]; Beinaglutide treatment groups (0.6, 1.2, 2.4 mg/kg t.i.d. s.c.), 11 weeks, vs control group, FIGS. 13A-13D
  body weight increase: significantly reduced
HFD-NASH mice [1]; Beinaglutide treatment groups (0.6, 1.2, 2.4 mg/kg), last 3 measurements (Day 68, 71, 75), vs control group, FIG. 14
  8-hour average food consumption: significantly reduced
HFD-NASH mice [1]; Beinaglutide treatment groups vs control group, after 9 weeks treatment
  plasma ALT level: no significant difference
HFD-NASH mice [1]; Beinaglutide treatment groups, 11 weeks, P>0.05, FIG. 17D
  serum TG levels: no significant effect
HFD-NASH mice [1]; Beinaglutide treatment groups, 11 weeks, vs control group, FIG. 18A
  liver TC content: No statistically significant effect
HFD-NASH mice [1]; Beinaglutide treatment groups, 11 weeks, FIG. 17C
  serum TBIL: no significant effect
HFD-NASH mice [1]; [4]
  liver inflammation score: appeared to have decreased
  serum AST level: appeared to have decreased
HFD-NASH mice [1]; all Beinaglutide treatment groups, 11 weeks, FIGS. 22A-22B
  α-SMA positive areas (IHC staining): decreased
HFD-NASH mice [1]; each Beinaglutide dose group, 11 weeks, vs control group, FIG. 19A
  relative mRNA expression level of Col1a1 in liver (qRT-PCR): significantly decreased
HFD-NASH mice [1]; each Beinaglutide dose group, 11 weeks, vs control group, FIG. 19B
  Tgfb1 gene expression level in liver (qRT-PCR): no statistically significant differences
HFD-NASH mice [1]; each Beinaglutide dose group, 11 weeks, vs control group, FIG. 19C
  Acta2 gene expression level in liver (qRT-PCR): no statistically significant differences
HFD-NASH mice [1]; each Beinaglutide treatment group (0.6, 1.2, 2.4 mg/kg), 11 weeks, vs control group, FIG. 17F
  serum LDL-c level: significant (P<0.05, P<0.01, or even P<0.001) decrease
HFD-NASH mice [1]; each Beinaglutide treatment group, 11 weeks, vs control group, FIGS. 21A-21C
  percentage of Sirius red staining positive area: appeared to have decreased
HFD-NASH mice [1]; every Beinaglutide treatment group (0.6, 1.2, 2.4 mg/kg), 11 weeks, vs control group, FIG. 15A
  liver weight: significantly decreased
HFD-NASH mice [1]; every Beinaglutide treatment group (0.6, 1.2, 2.4 mg/kg), 11 weeks, vs control group, FIG. 15B
  liver index: significantly decreased
HFD-NASH mice [1]; every Beinaglutide treatment group, 11 weeks, FIG. 23A
  NAS score: appeared to have decreased
HFD-NASH mice [2]; 2.4 mg/kg s.c. three times per day, 4 weeks, vs control group, FIG. 4A
  Body weight: lower body weight
HFD-NASH mice [2]; 2.4 mg/kg s.c. three times per day, 4 weeks, vs vehicle, FIG. 2A
  liver weight: significantly reduced
HFD-NASH mice [2]; 2.4 mg/kg s.c. three times per day, 4 weeks, vs vehicle, FIG. 2B
  liver triglyceride (TG) content: significantly reduced
HFD-NASH mice [2]; 2.4 mg/kg s.c. three times per day, 4 weeks, vs vehicle, FIG. 2C
  plasma alanine aminotransferase (ALT): significantly reduced
HFD-NASH mice [2]; 2.4 mg/kg s.c. three times per day, 4 weeks, vs vehicle, FIG. 2D
  plasma aspartate aminotransferase (AST): significantly reduced
HFD-NASH mice [2]; 2.4 mg/kg s.c. three times per day, 4 weeks, vs vehicle, FIG. 2E
  macrovesicular and microvesicular steatosis (H&E-stained liver sections): significantly reduced
HFD-NASH mice [2]; 2.4 mg/kg s.c. three times per day, 4 weeks, vs vehicle, FIG. 3A
  Plasma TNF-α level: significantly reduced
HFD-NASH mice [2]; 2.4 mg/kg s.c. three times per day, 4 weeks, vs vehicle, FIG. 3B
  Plasma IL-6 level: significantly reduced
HFD-NASH mice [2]; 2.4 mg/kg s.c. three times per day, 4 weeks, vs vehicle, FIG. 3E
  Hepatic fibrosis (picrosirius red stained liver sections): significantly reduced
HFD-NASH mice [2]; 2.4 mg/kg s.c. three times per day, 4 weeks, vs vehicle, FIGS. 3C-3D
  Protein level of liver collagen 1 alpha 1 (western blotting, densitometry normalized to actin): significantly lower
HFD-NASH mice [2]; 2.4 mg/kg, OGTT at day 30, vs control group, FIG. 4B
  blood glucose in the oral glucose tolerance test (OGTT): lower blood glucose
HFD-NASH mice [2]; 2.4 mg/kg, vs control group, FIG. 4C
  HOMA-IR (insulin resistance): lower insulin resistance
[3]
  difference of pharmacokinetics between C57BL/6J mice and HFD-NASH mice: No significant difference
